This is an account of results in patent US7635719B2, “Use of adamatyl methoxydiphenyl propenoic acid for the treatment of acne” (Sigma-Tau Industrie Farmaceutiche Riunite S.p.A., priority 2005, dated 2009).

A short description of data set [1]: Body weight of rhino mice treated with ST1898 (Formulation 2) or adapalene. It counts as in vivo, rhino (RHJ/LeJ) mice. The procedure: (§1) 30 rhino (RHJ/LeJ) mice (Jackson Laboratory), 15 male and 15 female (6-8 weeks of age) were subdivided in 6 mice/group. Two groups were treated with ST1898 (Formulation 2) (0.1% and 0.05% in the vehicle), a group with adapalene (Differin® gel), used as reference compound (0.1%), a group with the vehicle (the same of the formulation of Differin® gel: carbomer 980, propylene glycol, poloxamer, disodium edentate, methyl hydroxybenzoate, phenoxyethanol, sodium hydroxide and purified water).
A topical application on the dorsal skin (massage for 30-45 sec) was performed of 50 μl applied with a gloved finger. The treatment was done once daily for 5 consecutive days/week (excluding Saturdays and Sundays) for 3 consecutive weeks.
During the treatment, the body weight of mice was recorded to control the healthy status of mice. No significative variation in body weight was found (table 2).
Mice were sacrificed 3 days after the last treatment. The vehicle used for ST1898 (Formulation 2) was the same of Differin gel (carbomer 980, propylene glycol, poloxamer, disodium edentate, methyl hydroxybenzoate, phenoxyethanol, sodium hydroxide and purified water).

Data set [2] concerns epidermal utriculi (comedones) of rhino mice. In words: Comedolytic action of ST1898 (Formulation 2) on epidermal pseudocomedones in rhino mice. Type of data set: in vivo, rhino (RHJ/LeJ) mice. As for the experimental part:
Formulations: ST1898 0.1 and 0.05% in the vehicle.
Vehicle: carbomer 980, propylene glycol, poloxamer, disodium edentate, methyl hydroxybenzoate, phenoxyethanol, sodium hydroxide and purified water).
Adapalene (Differin Gel®) was used as reference compound (0.1%).
as §1
A group was not treated (control). The drugs (50 μl) were applied with a sterile gloved finger topically on the dorsal skin (massage for 30-45 sec), once daily for 5 consecutive days/week (excluding Saturdays and Sundays) for 3 consecutive […]. Three days after the last application, mice were sacrificed by cervical dislocation. Two skin punch biopsies (6 mm) were taken immediately after death from all sacrificed animals. The biopsies were formalin-fixed (10% buffered formalin solution) and paraffin-embedded.
Quantitative histological image analysis was evaluated as the total number of epidermal utriculi (comedones) per centimeter of stratum corneum length, the comedo profile, and the epidermal thickness. From one biopsy, three 3-μm thick skin sections were obtained at 150 μm intervals and were stained with hematoxylin-eosin. The second biopsy was kept stored for records.
Assisted computer morphometric analysis of the stained skin sections was performed using a Zeiss KS300.3 system (parameters n. 1, 3 and 4). For total length of the stratum corneum measurement a micrometric equipment was used. The following microscopic parameters were measured:
1) on each open epidermal utriculum/comedo the largest diameter or diameter taken at half depth (D) and diameter of the surface orifice (d),
2) length of the three sections, taken as total length of the stratum corneum,
3) total number of epidermal utriculi/comedones in the three sections,
4) in interfollicular areas, surface (S) of the epidermis and length (L) of the corresponding basal layer.
1) number of utriculi/(comedones)/length of stratum corneum (cm);
2) Comedo profile, calculated as r=d/D,
3) epidermal thickness, calculated as S/L in […]m.
A topical application on the dorsal skin (massage for 30-45 sec) was performed of 50 μl applied with a gloved finger. The treatment was done once daily for 5 consecutive days/week (excluding Saturdays and Sundays) for 3 consecutive weeks. […]

Molecules are shown by their SMILES.

As for `COc1ccc(-c2ccc3cc(C(=O)O)ccc3c2)cc1C12CC3CC(CC(C3)C1)C2` [Adapalene, reference compound], the “Initial body weight gr ± SE” value in data set [1] (0.1% group, before treatment) was 21.3 ± 1.1 gr. Further, in data set [1] (0.1% topical qdx5/wx3w), the “Body weight loss max (%)” value came to 4% and the “Final body weight gr ± SE” value is given as 21.2 ± 1.3 gr. Moreover, in data set [2] (0.1% gel (Formulation 2 / Differin gel), topical 50 μl qdx5/wx3w, mean ± SD, untreated 57.35, vehicle 57.27), the “Comedones (n/cm)” value is 28.31 ± 2.92 n/cm. Moreover, the “Comedo profile (r = d/D)” value in data set [2] (0.1% gel, topical 50 μl qdx5/wx3w, mean ± SD, untreated 0.62, vehicle 0.61) was 1.24 ± 0.11. In data set [2] (0.1% gel, topical 50 μl qdx5/wx3w, mean ± SD, untreated 20.90, vehicle 20.56), the “Epidermal thickness (μm)” value is listed as 57.33 ± 9.99 μm. For the same compound, the “Histological analysis: interfollicular epidermis (in words)” value in data set [2] (skin of treated rhino mice) was “hyperplasia of interfollicular epidermis”.
